What is called melting point is the temperature of the solid-liquid transition. The term IC50 denotes the concentration needed to halve the response being measured.

The record followed here is patent US8969565B2, “Imidazo[1,2-b]pyridazine-based compounds, compositions comprising them, and methods of their use” (Lexicon Pharmaceuticals, Inc., priority 2012, dated 2015).

For series [1], the target named is T1, AAK1 (Homo sapiens, UniProt Q2M2I8).
T1 construct: HA; expressed in transfected cells; host or cells: HEK293F
T1 sequence (Q2M2I8 1-863 isoform Q2M2I8-2): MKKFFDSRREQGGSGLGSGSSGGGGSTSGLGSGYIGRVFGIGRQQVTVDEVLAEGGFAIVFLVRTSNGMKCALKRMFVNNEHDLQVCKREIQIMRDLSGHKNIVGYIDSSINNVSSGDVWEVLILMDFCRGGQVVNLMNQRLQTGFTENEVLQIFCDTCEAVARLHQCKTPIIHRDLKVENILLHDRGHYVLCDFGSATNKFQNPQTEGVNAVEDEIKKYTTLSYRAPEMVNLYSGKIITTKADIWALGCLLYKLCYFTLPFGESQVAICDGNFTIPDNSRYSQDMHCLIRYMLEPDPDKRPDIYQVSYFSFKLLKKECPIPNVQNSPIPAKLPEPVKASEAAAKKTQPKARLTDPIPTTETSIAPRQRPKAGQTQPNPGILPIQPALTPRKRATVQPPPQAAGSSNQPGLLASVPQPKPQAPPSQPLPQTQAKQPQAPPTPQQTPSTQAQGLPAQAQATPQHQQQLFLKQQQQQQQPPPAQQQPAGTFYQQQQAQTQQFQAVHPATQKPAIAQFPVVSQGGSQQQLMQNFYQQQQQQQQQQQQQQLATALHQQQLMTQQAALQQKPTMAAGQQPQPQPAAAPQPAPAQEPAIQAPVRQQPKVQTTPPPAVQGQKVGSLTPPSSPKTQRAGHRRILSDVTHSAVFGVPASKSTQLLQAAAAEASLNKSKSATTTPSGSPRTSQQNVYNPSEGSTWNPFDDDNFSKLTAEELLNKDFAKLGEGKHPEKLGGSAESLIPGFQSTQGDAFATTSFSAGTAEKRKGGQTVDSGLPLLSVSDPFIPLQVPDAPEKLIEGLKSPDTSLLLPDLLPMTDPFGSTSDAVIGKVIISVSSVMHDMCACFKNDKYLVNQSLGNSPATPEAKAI
In words: HEK281 cell-based assay (phospho-mu2 Western blot in transfected HEK293F cells). The note with it: 3 hours incubation, read-out: CBA IC50. In short, it runs like this: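 After 3 hours at 37° C. with compound (five 3-fold-spaced concentrations, DMEM+0.5% FBS), transiently transfected HEK293F cells expressing full-length human AAK1 and Flag-tagged mu2 were lysed. mu2 phosphorylation was read by anti-phospho-mu2 immunoblot, normalized against total mu2 by anti-Flag blot.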
For orientation: Immunoblotting shows a protein as a band on a membrane.

In series [2] the target is T1, AAK1. As to the kind of experiment: P81 filter plate assay. The format is biochemical. Particulars: full-length human AAK1, Mu2 substrate.

Structures are written as SMILES. Structures can show the parent of a compound that is named as a salt. A value given as a limit tells only on which side of the number the result lay.

As for `CN(CCNc1ccc2ncc(-c3ccc(C(N)=O)cc3)n2n1)C(=O)NC(C)(C)C`, the melting point was 154 to 155 °C. Still for that read-out and setting: next, `CC(C)OC(=O)N1CCN(c2ccc3ncc(-c4ccccc4)n3n2)CC1` (as salt: hydrochloride) [4-(3-Phenyl-imidazo[1,2-b]pyridazin-6-yl)-piperazine-1-carboxylic acid isopropyl ester]: 232 to 233 °C (dec.). As for `COc1cnccc1-c1cnc2ccc(N3CCN(C(=O)OC(C)C)CC3)nn12` (as salt: hydrochloride) [Example 5.6.103, 4-[3-(3-Methoxy-pyridin-4-yl)-imidazo[1,2-b]pyridazin-6-yl]-piperazine-1-carboxylic acid isopropyl ester], the melting point is 217 to 218 °C (dec.).

`FC(F)(F)CCCNc1ccc2ncc(-c3cccc4c3OCC4)n2n1` (as salt: hydrochloride) [Example 5.6.106, [3-(2,3-Dihydro-benzofuran-7-yl)-imidazo[1,2-b]pyridazin-6-yl]-(4,4,4-trifluoro-butyl)-amine] came in with a melting point of 299 to 300 °C.

Regarding `CC(C)OC(=O)N1CCN(c2ccc3ncc(-c4ccncc4)n3n2)CC1` (as salt: hydrochloride) [Example 5.6.108, 4-(3-Pyridin-4-yl-imidazo[1,2-b]pyridazin-6-yl)-piperazine-1-carboxylic acid isopropyl ester], the melting point was 195 to 196 °C (dec.). For the compound `COc1cnccc1-c1cnc2ccc(N3CCN(C(=O)CC(C)(C)C)CC3)nn12` (as salt: hydrochloride) [Example 5.6.114, 1-(4-(3-(3-Methoxypyridin-4-yl)imidazo[1,2-b]pyridazin-6-yl)piperazin-1-yl)-3,3-dimethylbutan-1-one], the melting point was 211 to 212 °C (dec.). On the same count and under the same terms, to `COc1ccccc1-c1cnc2ccc(N3CCN(C(=O)OC(C)C)CC3)nn12` (as salt: hydrochloride) [Example 5.6.115, 4-[3-(2-Methoxy-phenyl)-imidazo[1,2-b]pyridazin-6-yl]-piperazine-1-carboxylic acid isopropyl ester] belongs 243 to 244 °C (dec.); to `CC(C)(C)C(=O)N1CCN(c2ccc3ncc(-c4ccccc4)n3n2)CC1` (as salt: hydrochloride) [Example 5.6.125, 2,2-Dimethyl-1-[4-(3-phenyl-imidazo[1,2-b]pyridazin-6-yl)-piperazin-1-yl]-propan-1-one], 277 to 278 °C (dec.). Take `CC(C)OC(=O)N1CCN(c2ccc3ncc(-c4ccccc4OC(C)C)n3n2)CC1` (as salt: hydrochloride) [Example 5.6.145, 4-[3-(2-Isopropoxy-phenyl)-imidazo[1,2-b]pyridazin-6-yl]-piperazine-1-carboxylic acid isopropyl ester]: the melting point is 216 to 217 °C (dec.). Take `CC(C)OC(=O)N1CCN(c2ccc3ncc(-c4ccccc4OC(F)F)n3n2)CC1` [isopropyl 4-(3-(2-(difluoromethoxy)phenyl)imidazo[1,2-b]pyridazin-6-yl)piperazine-1-carboxylate]: the IC50 was at most 0.1 µM at AAK1 [1] and at most 0.01 µM at AAK1 [2]. The corresponding values for `CC(C)OC(=O)N1CCN(c2ccc3ncc(-c4cccnc4OC(F)F)n3n2)CC1` [isopropyl 4-(3-(2-(difluoromethoxy)pyridin-3-yl)imidazo[1,2-b]pyridazin-6-yl)piperazine-1-carboxylate] are at most 0.1 µM and at most 0.01 µM. As to `CCOc1ccccc1-c1cnc2ccc(N3CCN(C(=O)OC(C)C)CC3)nn12` [isopropyl 4-(3-(2-ethoxyphenyl)imidazo[1,2-b]pyridazin-6-yl)piperazine-1-carboxylate], the IC50 at AAK1 [1] was at most 0.1 µM; against AAK1 [2], at most 0.01 µM. On to `CCOc1ncccc1-c1cnc2ccc(N3CCN(C(=O)OC(C)C)CC3)nn12` [isopropyl 4-(3-(2-ethoxypyridin-3-yl)imidazo[1,2-b]pyridazin-6-yl)piperazine-1-carboxylate], for which the concentration for half-maximal inhibition (IC50) on AAK1 [1] and on AAK1 [2] was at most 0.01 µM throughout.

On to `COc1cccc(-c2cnc3ccc(N4CCN(C(=O)OC(C)C)CC4)nn23)c1F` [isopropyl 4-(3-(2-fluoro-3-methoxyphenyl)imidazo[1,2-b]pyridazin-6-yl)piperazine-1-carboxylate], for which the results for the 50% inhibitory concentration (IC50) at AAK1 [1] and at AAK1 [2] were at most 0.1 µM and at most 0.01 µM, respectively. On to `CC(C)OC(=O)N1CCN(c2ccc3ncc(-c4ccccc4F)n3n2)CC1` [isopropyl 4-(3-(2-fluorophenyl)imidazo[1,2-b]pyridazin-6-yl)piperazine-1-carboxylate], for which the values for the IC50 at AAK1 [1] and against AAK1 [2] were at most 0.1 µM and at most 0.01 µM, respectively. For the compound `COc1nc(C)ccc1-c1cnc2ccc(N3CCN(C(=O)OC(C)C)CC3)nn12` [isopropyl 4-(3-(2-methoxy-6-methylpyridin-3-yl)imidazo[1,2-b]pyridazin-6-yl)piperazine-1-carboxylate], the IC50 at AAK1 [1] and against AAK1 [2] was at most 0.01 µM in each case. For `COc1ccccc1-c1cnc2ccc(N3CCN(C(=O)OC(C)C)CC3)nn12` [isopropyl 4-(3-(2-methoxyphenyl)imidazo[1,2-b]pyridazin-6-yl)piperazine-1-carboxylate], the IC50 at AAK1 [1] and on AAK1 [2] was at most 0.01 µM throughout. For `COc1ncccc1-c1cnc2ccc(N3CCN(C(=O)OC(C)C)CC3)nn12` [isopropyl 4-(3-(2-methoxypyridin-3-yl)imidazo[1,2-b]pyridazin-6-yl)piperazine-1-carboxylate], the concentration for half-maximal inhibition (IC50) on AAK1 [1] and at AAK1 [2] was at most 0.01 µM throughout. With `COc1cc(-c2cnc3ccc(N4CCN(C(=O)OC(C)C)CC4)nn23)ccn1` [isopropyl 4-(3-(2-methoxypyridin-4-yl)imidazo[1,2-b]pyridazin-6-yl)piperazine-1-carboxylate], the IC50 on AAK1 [1] was at most 0.1 µM; at AAK1 [2], at most 0.01 µM. The corresponding values for `CC(C)OC(=O)N1CCN(c2ccc3ncc(-c4ccc[nH]c4=O)n3n2)CC1` [isopropyl 4-(3-(2-oxo-1,2-dihydropyridin-3-yl)imidazo[1,2-b]pyridazin-6-yl)piperazine-1-carboxylate] are at most 0.1 µM and at most 0.01 µM. Taken in the same sequence, the figures for `CC(C)OC(=O)N1CCN(c2ccc3ncc(-c4cccc(Cl)c4)n3n2)CC1` [isopropyl 4-(3-(3-chlorophenyl)imidazo[1,2-b]pyridazin-6-yl)piperazine-1-carboxylate] were at most 1 µM and at most 0.01 µM.

In the case of `COc1cccc(-c2cnc3ccc(N4CCN(C(=O)OC(C)C)CC4)nn23)c1` [isopropyl 4-(3-(3-methoxyphenyl)imidazo[1,2-b]pyridazin-6-yl)piperazine-1-carboxylate], the values for the IC50 on AAK1 [1] and against AAK1 [2] were at most 0.1 µM and at most 0.01 µM, respectively.

Take `CC(C)OC(=O)N1CCN(c2ccc3ncc(-c4ccc(CN)cc4)n3n2)CC1` [isopropyl 4-(3-(4-(aminomethyl)phenyl)imidazo[1,2-b]pyridazin-6-yl)piperazine-1-carboxylate]: the IC50 at AAK1 [1] and on AAK1 [2] was at most 0.01 µM throughout.

`COc1cc(C)c(F)cc1-c1cnc2ccc(N3CCN(C(=O)OC(C)C)CC3)nn12` [isopropyl 4-(3-(5-fluoro-2-methoxy-4-methylphenyl)imidazo[1,2-b]pyridazin-6-yl)piperazine-1-carboxylate]: the IC50 on AAK1 [1] and on AAK1 [2] was at most 0.01 µM in each case. With `COc1ccc(F)cc1-c1cnc2ccc(N3CCN(C(=O)OC(C)C)CC3)nn12` [isopropyl 4-(3-(5-fluoro-2-methoxyphenyl)imidazo[1,2-b]pyridazin-6-yl)piperazine-1-carboxylate], the 50% inhibitory concentration (IC50) on AAK1 [1] and against AAK1 [2] was at most 0.01 µM throughout. In the case of `COc1ncc(F)cc1-c1cnc2ccc(N3CCN(C(=O)OC(C)C)CC3)nn12` [isopropyl 4-(3-(5-fluoro-2-methoxypyridin-3-yl)imidazo[1,2-b]pyridazin-6-yl)piperazine-1-carboxylate], the IC50 on AAK1 [1] and at AAK1 [2] was at most 0.01 µM in each case. As for `O=C(N1CCCCC1)N1CCN(c2ccc3ncc(-c4ccccn4)n3n2)CC1` [piperidin-1-yl(4-(3-(pyridin-2-yl)imidazo[1,2-b]pyridazin-6-yl)piperazin-1-yl)methanone], the IC50 at AAK1 [1] was at most 0.1 µM; against AAK1 [2], at most 0.01 µM. In the case of `COc1ccccc1-c1cnc2ccc(N3CCC(N(C)C(=O)OC(C)(C)C)C3)nn12` (stereo not shown) [tert-butyl (1-(3-(2-methoxyphenyl)imidazo[1,2-b]pyridazin-6-yl)pyrrolidin-3-yl)(methyl)carbamate], the values for the IC50 on AAK1 [1] and against AAK1 [2] were at most 1 µM and at most 0.01 µM, respectively. The corresponding values for `COc1ncccc1-c1cnc2ccc(N3CCC(N(C)C(=O)OC(C)(C)C)C3)nn12` (stereo not shown) [tert-butyl (1-(3-(2-methoxypyridin-3-yl)imidazo[1,2-b]pyridazin-6-yl)pyrrolidin-3-yl)(methyl)carbamate] are at most 0.1 µM and at most 0.01 µM. As to `CN(C(=O)OC(C)(C)C)C1CCN(c2ccc3ncc(-c4ccccc4)n3n2)C1` (stereo not shown) [tert-butyl methyl(1-(3-phenylimidazo[1,2-b]pyridazin-6-yl)pyrrolidin-3-yl)carbamate], the IC50 at AAK1 [1] and on AAK1 [2] was at most 0.1 µM each time. Take `COc1ncccc1-c1cnc2ccc(N3CC[C@H](N(C)C(=O)OC(C)(C)C)C3)nn12` [{(S)-1-[3-(2-Methoxy-pyridin-3-yl)-imidazo[1,2-b]pyridazin-6-yl]-pyrolidin-3-yl}-methyl-carbamic acid tert-butyl ester]: the IC50 is at most 0.1 µM on AAK1 [1] and at most 0.01 µM at AAK1 [2].

`COc1ncccc1-c1cnc2ccc(N3CC[C@H](N(C)C(=O)OC(C)C)C3)nn12` [{(S)-1-[3-(2-Methoxy-pyridin-3-yl)-imidazo[1,2-b]pyridazin-6-yl]-pyrrolidin-3-yl}-methyl-carbamic acid isopropyl ester]: the half-inhibitory concentration (IC50) at AAK1 [1] and at AAK1 [2] was at most 0.01 µM each time.
